Columns and labels:
Mg561 (H6c-Mg561) [1] = target: T1, Mg561 (H6c-Mg561) (Megavirus chiliensis, UniProt G5CT11); experiment: in vitro polyU tailing of […]-labelled 20-mer RNA, urea-PAGE; type: biochemical; conditions: 100 μM UTP in place of ATP, Mn2+ (similar with Mg2+), pH 7.5, 30°C
T1 construct: gene mchi_555; full length, N-terminal His6 tag removed by HRV 3C protease; E. coli Rosetta (DE3)
T1 sequence (G5CT11 1-531): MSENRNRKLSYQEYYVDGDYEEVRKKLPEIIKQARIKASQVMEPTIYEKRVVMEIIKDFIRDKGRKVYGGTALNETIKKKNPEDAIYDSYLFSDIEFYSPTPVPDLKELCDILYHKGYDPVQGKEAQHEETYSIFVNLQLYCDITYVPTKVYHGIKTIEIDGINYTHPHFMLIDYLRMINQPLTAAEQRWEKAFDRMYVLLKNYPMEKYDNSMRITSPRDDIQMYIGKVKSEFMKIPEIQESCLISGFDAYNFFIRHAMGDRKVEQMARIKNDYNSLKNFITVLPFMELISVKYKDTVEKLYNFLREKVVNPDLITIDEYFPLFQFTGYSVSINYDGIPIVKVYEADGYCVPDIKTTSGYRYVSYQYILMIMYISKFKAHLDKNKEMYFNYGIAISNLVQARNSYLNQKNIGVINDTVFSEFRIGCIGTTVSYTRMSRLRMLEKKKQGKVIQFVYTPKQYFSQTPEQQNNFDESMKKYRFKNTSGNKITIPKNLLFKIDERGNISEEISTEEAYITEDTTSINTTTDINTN

R341 (H6c-R341) = target: T2, R341 (H6c-R341) (Acanthamoeba polyphaga mimivirus, UniProt Q5UQS6); conditions: 100 μM ATP, 5 mM MgCl2 or 0.5 mM MnCl2, pH 7.5, 30°C
T2 construct: gene MIMI_R341

Mg561 (H6c-Mg561) [2] = target: T1, Mg561 (H6c-Mg561); experiment: in vitro polyadenylation of […]-labelled 20-mer RNA, urea-PAGE; type: biochemical; conditions: 100 μM ATP, 5 mM MgCl2 or 0.5 mM MnCl2, pH 7.5, 30°C
[3] = target: Mimivirus polyA polymerase R341, after tag removal (H6c-R341) (Mimivirus); experiment: SEC; gel filtration of purified proteins, GE Healthcare markers for calibration
[4] = target: Megavirus chilensis polyA polymerase Mg561, after tag removal (H6c-Mg561) (Megavirus chilensis); experiment: as above
[5] = target: Megavirus chilensis Mg18 protein with N-terminal His6 tag (H6c+Mg18) (Megavirus chilensis); experiment: BLI
Mg18 (H6c+Mg18) = target: T3, Mg18 (H6c+Mg18) (Megavirus chiliensis, UniProt G5CQI9); experiment: methyl transfer from 3H-AdoMet to RNA, DEAE filter binding; type: biochemical; conditions: 10 μM AdoMet, GpppAN13, 7MeGpppAN13 or poly(A) RNA 0.7 μM, 1 mM MgCl2, pH 7.5, 30°C; labelled compound
T3 construct: gene mchi_21; full length, N-terminal His6 tag kept; E. coli Rosetta (DE3)
T3 sequence (G5CQI9 1-340): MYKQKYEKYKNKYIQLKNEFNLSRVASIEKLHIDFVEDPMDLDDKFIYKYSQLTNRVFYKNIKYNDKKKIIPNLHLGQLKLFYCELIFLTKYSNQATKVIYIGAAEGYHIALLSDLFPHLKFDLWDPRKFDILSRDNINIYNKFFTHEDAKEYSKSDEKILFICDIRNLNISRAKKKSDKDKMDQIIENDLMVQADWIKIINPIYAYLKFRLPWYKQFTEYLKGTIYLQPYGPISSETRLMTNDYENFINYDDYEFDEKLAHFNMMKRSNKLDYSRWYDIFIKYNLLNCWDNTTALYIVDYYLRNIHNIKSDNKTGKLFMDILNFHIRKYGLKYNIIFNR

Molecule: O=c1ccn([C@@H]2O[C@H](COP(=O)(O)OP(=O)(O)OP(=O)(O)O)[C@@H](O)[C@H]2O)c(=O)[nH]1 [UTP]
- in vitro polyU tailing of 32P-labelled 20-mer RNA, urea-PAGE (Mg561 (H6c-Mg561) [1]): Mg561 was also able to add long polyU tails, although with a reduced activity

Molecule: Nc1ncnc2c1ncn2[C@@H]1O[C@H](COP(=O)(O)OP(=O)(O)OP(=O)(O)O)[C@@H](O)[C@H]1O [ATP]
- in vitro polyadenylation of 32P-labelled 20-mer RNA, urea-PAGE (R341 (H6c-R341)): synthesize long products, apparently proccessively, derived from the RNA and ATP
- in vitro polyadenylation of 32P-labelled 20-mer RNA, urea-PAGE (Mg561 (H6c-Mg561) [2]): synthesize long products, apparently proccessively, derived from the RNA and ATP

Molecule: Mimivirus polyA polymerase R341, after tag removal (H6c-R341) (enzyme)
- stoichiometry N [3]: 2

Molecule: Megavirus chilensis polyA polymerase Mg561, after tag removal (H6c-Mg561) (enzyme)
- stoichiometry N [4]: 2
- Kd [5]: 6.2 µM

Molecule: C[S+](CC[C@H](N)C(=O)O)C[C@H]1O[C@@H](n2cnc3c(N)ncnc32)[C@H](O)[C@@H]1O (stereo partly shown) [AdoMet]
- methyl transfer from 3H-AdoMet to RNA, DEAE filter binding (Mg18 (H6c+Mg18)): Mg18 had comparable activity with 7MeGpppAN13 and GpppAN13

From publication PMC4402537, “mRNA maturation in giant viruses: variation on a theme” (Nucleic Acids Research, 2015)
